# From patent publication US20230085307A1, “PYRIDAZINONE COMPOUND AND HERBICIDE” (NISSAN CHEMICAL CORPORATION, priority 2019, published 2023)
# Columns and labels:
# barnyard grass [1] = assay: Test Example 3: herbicidal effect by foliage application, Wagner pot (Table 18, symbol H); assay type: in vivo, barnyard grass (Echinochloa crus-galli); settings: for herbicidal effect on H: barnyard grass: amount of applied herbicide 320 g/ha
# In short: (§1)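 Plants were sown in alluvial soil held under 0.1–0.5 cm standing water and grown 14 days in a greenhouse at 25–30 °C. An emulsifiable formulation, water-diluted to the set dose, was then sprayed onto the foliage, and effects were scored three weeks later using previously defined criteria.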
# Chinese sprangletop = assay: Test Example 3: herbicidal effect by foliage application, Wagner pot (Table 18, symbol D); assay type: in vivo, chinese sprangletop (Leptochloa chinensis); settings: for herbicidal effect on D: Chinese sprangletop: amount of applied herbicide 320 g/ha
# In short: as §1
# rice flat sedge = assay: Test Example 3: herbicidal effect by foliage application, Wagner pot (Table 18, symbol E); assay type: in vivo, rice flat sedge (Cyperus iria); settings: for herbicidal effect on E: rice flat sedge: amount of applied herbicide 320 g/ha
# In short: as §1
# wild oat [2] = assay: Test Example 4: herbicidal effect by soil treatment (Table 19, symbol I); assay type: in vivo, wild oat (Avena fatua); settings: for herbicidal effect, I: wild oat: amount of applied herbicide 320 g/ha
# In short: (§2)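 Step 1: sow seeds in sterilized diluvial soil, cover ~1.5 cm. Step 2: spray diluted emulsion onto soil surface at predetermined rate. Step 3: greenhouse, 25–30° C, three weeks. Step 4: grade effect on each plant by earlier criteria.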
# blackgrass [3] = assay: Test Example 4: herbicidal effect by soil treatment (Table 19, symbol J); assay type: in vivo, blackgrass (Alopecurus myosuroides); settings: for herbicidal effect, J: blackgrass: amount of applied herbicide 320 g/ha
# In short: as §2
# Italian ryegrass [4] = assay: Test Example 4: herbicidal effect by soil treatment (Table 19, symbol K); assay type: in vivo, Italian ryegrass (Lolium multiflorum); settings: for herbicidal effect, K: Italian ryegrass: amount of applied herbicide 320 g/ha
# In short: as §2
# windgrass [5] = assay: Test Example 4: herbicidal effect by soil treatment (Table 19, symbol L); assay type: in vivo, windgrass (Apera spica-venti); settings: for herbicidal effect, L: windgrass: amount of applied herbicide 320 g/ha
# In short: as §2
# chickweed = assay: Test Example 4: herbicidal effect by soil treatment (Table 19, symbol P); assay type: in vivo, common chickweed (Stellaria media); settings: for herbicidal effect, P: chickweed: amount of applied herbicide 320 g/ha
# In short: as §2
# persian speedwell [6] = assay: Test Example 4: herbicidal effect by soil treatment (Table 19, symbol R); assay type: in vivo, Persian speedwell (Veronica persica); settings: for herbicidal effect, R: persian speedwell: amount of applied herbicide 320 g/ha
# In short: as §2
# southern crabgrass [7] = assay: Test Example 5: herbicidal effect by foliage application, plastic box (Table 20, symbol F); assay type: in vivo, southern crabgrass (Digitaria ciliaris); settings: foliage application, 320 g/ha, 3 weeks after application
# In short: (§3)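 Foliar spray test: emulsion formulation diluted in water to a set application rate, sprayed onto 14-day-old plants raised in diluvial soil at 25° C to 30° C under glass. Both herbicidal effect and crop effect rated visually three weeks later.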
# green foxtail [8] = assay: Test Example 5: herbicidal effect by foliage application, plastic box (Table 20, symbol G); assay type: in vivo, green foxtail (Setaria viridis); settings: foliage application, 320 g/ha, 3 weeks after application
# In short: as §3
# barnyard grass [9] = assay: Test Example 5: herbicidal effect by foliage application, plastic box (Table 20, symbol H); assay type: in vivo, barnyard grass (Echinochloa crus-galli); settings: foliage application, 320 g/ha, 3 weeks after application
# In short: as §3
# wild oat [10] = assay: Test Example 5: herbicidal effect by foliage application, plastic box (Table 20, symbol I); assay type: in vivo, wild oat (Avena fatua); settings: foliage application, 320 g/ha, 3 weeks after application
# In short: as §3
# blackgrass [11] = assay: Test Example 5: herbicidal effect by foliage application, plastic box (Table 20, symbol J); assay type: in vivo, blackgrass (Alopecurus myosuroides); settings: foliage application, 320 g/ha, 3 weeks after application
# In short: as §3
# Italian ryegrass [12] = assay: Test Example 5: herbicidal effect by foliage application, plastic box (Table 20, symbol K); assay type: in vivo, Italian ryegrass (Lolium multiflorum); settings: foliage application, 320 g/ha, 3 weeks after application
# In short: as §3
# windgrass [13] = assay: Test Example 5: herbicidal effect by foliage application, plastic box (Table 20, symbol L); assay type: in vivo, windgrass (Apera spica-venti); settings: foliage application, 320 g/ha, 3 weeks after application
# In short: as §3
# velvetleaf [14] = assay: Test Example 5: herbicidal effect by foliage application, plastic box (Table 20, symbol M); assay type: in vivo, velvetleaf (Abutilon theophrasti); settings: foliage application, 320 g/ha, 3 weeks after application
# In short: as §3
# lambsquarters [15] = assay: Test Example 5: herbicidal effect by foliage application, plastic box (Table 20, symbol O); assay type: in vivo, lambsquarters (Chenopodium album); settings: foliage application, 320 g/ha, 3 weeks after application
# In short: as §3
# persian speedwell [16] = assay: Test Example 5: herbicidal effect by foliage application, plastic box (Table 20, symbol R); assay type: in vivo, Persian speedwell (Veronica persica); settings: foliage application, 320 g/ha, 3 weeks after application
# In short: as §3
# southern crabgrass [17] = assay: Test Example 4: herbicidal effect by soil treatment (Table 19, symbol F); assay type: in vivo, southern crabgrass (Digitaria ciliaris); settings: amount of applied herbicide 320 g/ha
# In short: as §2
# green foxtail [18] = assay: Test Example 4: herbicidal effect by soil treatment (Table 19, symbol G); assay type: in vivo, green foxtail (Setaria viridis); settings: amount of applied herbicide 320 g/ha
# In short: as §2
# barnyard grass [19] = assay: Test Example 4: herbicidal effect by soil treatment (Table 19, symbol H); assay type: in vivo, barnyard grass (Echinochloa crus-galli); settings: amount of applied herbicide 320 g/ha
# In short: as §2
# velvetleaf [20] = assay: Test Example 4: herbicidal effect by soil treatment (Table 19, symbol M); assay type: in vivo, velvetleaf (Abutilon theophrasti); settings: amount of applied herbicide 320 g/ha
# In short: as §2
# redroot pigweed = assay: Test Example 4: herbicidal effect by soil treatment (Table 19, symbol N); assay type: in vivo, redroot pigweed (Amaranthus retroflexus); settings: amount of applied herbicide 320 g/ha
# In short: as §2
# lambsquarters [21] = assay: Test Example 4: herbicidal effect by soil treatment (Table 19, symbol O); assay type: in vivo, lambsquarters (Chenopodium album); settings: amount of applied herbicide 320 g/ha
# In short: as §2
Compound,herbicidal effect on H: barnyard grass (barnyard grass [1]),herbicidal effect on D: Chinese sprangletop (Chinese sprangletop),herbicidal effect on E: rice flat sedge (rice flat sedge),"herbicidal effect, F: southern crabgrass (southern crabgrass [17])","herbicidal effect, G: green foxtail (green foxtail [18])","herbicidal effect, H: barnyard grass (barnyard grass [19])","herbicidal effect, I: wild oat (wild oat [2])","herbicidal effect, J: blackgrass (blackgrass [3])","herbicidal effect, K: Italian ryegrass (Italian ryegrass [4])","herbicidal effect, L: windgrass (windgrass [5])","herbicidal effect, M: velvetleaf (velvetleaf [20])","herbicidal effect, N: redroot pigweed (redroot pigweed)","herbicidal effect, O: lambsquarters (lambsquarters [21])","herbicidal effect, P: chickweed (chickweed)","herbicidal effect, R: persian speedwell (persian speedwell [6])",further results
COc1nn(C)c(=O)c(-c2c(-c3cc4ccccc4s3)sc3ccccc23)c1O [1-196],,,,,,,,,,,,,,,,"herbicidal effect on H (barnyard grass), rating 0-5 (barnyard grass [1]; 320 g/ha): 3 (Herbicidal rate of 40% or more and less than 70%); herbicidal effect on D (Chinese sprangletop), rating 0-5 (Chinese sprangletop; 320 g/ha): 0 (Herbicidal rate of 5% or less (almost no effect)); herbicidal effect on E (rice flat sedge), rating 0-5 (rice flat sedge; 320 g/ha): 5 (Herbicidal rate of 90% or more (almost completely withered)); I: wild oat, herbicidal effect rating (wild oat [2]; AAH 320 g/ha): 0 (Herbicidal rate of 5% or less (almost no effect)); J: blackgrass, herbicidal effect rating (blackgrass [3]; AAH 320 g/ha): 0 (Herbicidal rate of 5% or less (almost no effect)); K: Italian ryegrass, herbicidal effect rating (Italian ryegrass [4]; AAH 320 g/ha): 4 (Herbicidal rate of 70% or more and less than 90%); L: windgrass, herbicidal effect rating (windgrass [5]; AAH 320 g/ha): 0 (Herbicidal rate of 5% or less (almost no effect)); P: chickweed, herbicidal effect rating (chickweed; AAH 320 g/ha): 5 (Herbicidal rate of 90% or more (almost completely withered)); R: persian speedwell, herbicidal effect rating (persian speedwell [6]; AAH 320 g/ha): 5 (Herbicidal rate of 90% or more (almost completely withered)); effect on southern crabgrass (F) (southern crabgrass [7]): 0 (Herbicidal rate of 5% or less (almost no effect)); effect on green foxtail (G) (green foxtail [8]): 0 (Herbicidal rate of 5% or less (almost no effect)); effect on barnyard grass (H) (barnyard grass [9]): 0 (Herbicidal rate of 5% or less (almost no effect)); effect on wild oat (I) (wild oat [10]): 0 (Herbicidal rate of 5% or less (almost no effect)); effect on blackgrass (J) (blackgrass [11]): 0 (Herbicidal rate of 5% or less (almost no effect)); effect on Italian ryegrass (K) (Italian ryegrass [12]): 3 (Herbicidal rate of 40% or more and less than 70%); effect on windgrass (L) (windgrass [13]): 0 (Herbicidal rate of 5% or less (almost no effect)); effect on velvetleaf (M) (velvetleaf [14]): 3 (Herbicidal rate of 40% or more and less than 70%); effect on lambsquarters (O) (lambsquarters [15]): 5 (Herbicidal rate of 90% or more (almost completely withered)); effect on persian speedwell (R) (persian speedwell [16]): 5 (Herbicidal rate of 90% or more (almost completely withered))"
Cc1nn(C)c(=O)c(-c2c(-c3ccc(C(F)(F)F)cc3F)sc3ccc(F)cc23)c1O [2-354],5 (Herbicidal rate of 90% or more (almost completely withered)),5 (Herbicidal rate of 90% or more (almost completely withered)),5 (Herbicidal rate of 90% or more (almost completely withered)),0 (Herbicidal rate of 5% or less (almost no effect)),1 (Herbicidal rate of 5% or more and less than 20%),0 (Herbicidal rate of 5% or less (almost no effect)),0 (Herbicidal rate of 5% or less (almost no effect)),0 (Herbicidal rate of 5% or less (almost no effect)),0 (Herbicidal rate of 5% or less (almost no effect)),0 (Herbicidal rate of 5% or less (almost no effect)),0 (Herbicidal rate of 5% or less (almost no effect)),3 (Herbicidal rate of 40% or more and less than 70%),3 (Herbicidal rate of 40% or more and less than 70%),1 (Herbicidal rate of 5% or more and less than 20%),4 (Herbicidal rate of 70% or more and less than 90%),
COc1cccc(-c2sc3ccc(F)cc3c2-c2c(O)c(C)nn(C)c2=O)c1F [2-362],3 (Herbicidal rate of 40% or more and less than 70%),0 (Herbicidal rate of 5% or less (almost no effect)),3 (Herbicidal rate of 40% or more and less than 70%),0 (Herbicidal rate of 5% or less (almost no effect)),0 (Herbicidal rate of 5% or less (almost no effect)),0 (Herbicidal rate of 5% or less (almost no effect)),0 (Herbicidal rate of 5% or less (almost no effect)),0 (Herbicidal rate of 5% or less (almost no effect)),2 (Herbicidal rate of 20% or more and less than 40%),0 (Herbicidal rate of 5% or less (almost no effect)),0 (Herbicidal rate of 5% or less (almost no effect)),1 (Herbicidal rate of 5% or more and less than 20%),3 (Herbicidal rate of 40% or more and less than 70%),0 (Herbicidal rate of 5% or less (almost no effect)),0 (Herbicidal rate of 5% or less (almost no effect)),
COc1ccc(-c2sc3ccc(F)cc3c2-c2c(O)c(C)nn(C)c2=O)c(F)c1 [2-364],4 (Herbicidal rate of 70% or more and less than 90%),4 (Herbicidal rate of 70% or more and less than 90%),5 (Herbicidal rate of 90% or more (almost completely withered)),0 (Herbicidal rate of 5% or less (almost no effect)),0 (Herbicidal rate of 5% or less (almost no effect)),0 (Herbicidal rate of 5% or less (almost no effect)),0 (Herbicidal rate of 5% or less (almost no effect)),0 (Herbicidal rate of 5% or less (almost no effect)),0 (Herbicidal rate of 5% or less (almost no effect)),0 (Herbicidal rate of 5% or less (almost no effect)),0 (Herbicidal rate of 5% or less (almost no effect)),1 (Herbicidal rate of 5% or more and less than 20%),4 (Herbicidal rate of 70% or more and less than 90%),0 (Herbicidal rate of 5% or less (almost no effect)),0 (Herbicidal rate of 5% or less (almost no effect)),
